Read-outs that look alike come from different tables or passages of the source.
Tested on: HIV-1
Details: as part of an optimized regimen, plasma HIV-1 RNA
Protocol: Groups of HIV-1 positive patients were treated (as part of an optimized regimen) with ATC+either LPV or ATV, and compared to patients treated with 3TC+either LPV or ATV. Samples were taken after therapy to determine the number of patients who achieved an undetectable plasma HIV-1 RNA level (<50 copies/mL).

COC(=O)N[C@H](C(=O)N[C@@H](Cc1ccccc1)[C@@H](O)CN(Cc1ccc(-c2ccccn2)cc1)NC(=O)[C@@H](NC(=O)OC)C(C)(C)C)C(C)(C)C [ATV, methyl N-[(1S)-1-{[(2S,3S)-3-hydroxy-4-[(2S)-2-[(methoxycarbonyl)amino]-3,3-dimethyl-N′-{[4-(pyridin-2-yl)phenyl]methyl}butanehydrazido]-1-phenylbutan-2-yl]carbamoyl}-2,2-dimethylpropyl]carbamate] was tested, and the “Patients achieving <50 copies/mL, %” value (combined with 150 mg BID 3TC) was 42.9%, the “Patients achieving <50 copies/mL, n/N” value (combined with 150 mg BID 3TC) was 6/14 and the “Patients achieving <50 copies/mL, %” value (combined with 800 mg BID ATC) was 66.7%. For the same molecule, the “Patients achieving <50 copies/mL, n/N” value (combined with 800 mg BID ATC) was 8/12.
Cc1cccc(C)c1OCC(=O)N[C@@H](Cc1ccccc1)[C@@H](O)C[C@H](Cc1ccccc1)NC(=O)[C@H](C(C)C)N1CCCNC1=O [LPV, Lopinavir] was tested, and the “Patients achieving <50 copies/mL, %” value (combined with 150 mg BID 3TC) was 62%, the “Patients achieving <50 copies/mL, n/N” value (combined with 150 mg BID 3TC) was 18/29 and the “Patients achieving <50 copies/mL, %” value (combined with 800 mg BID ATC) was 60%. For the same molecule, the “Patients achieving <50 copies/mL, n/N” value (combined with 800 mg BID ATC) was 18/30.
